{"source": "paper PMC10541198", "about": "“Specific quinone reductase 2 inhibitors reduce metabolic burden and reverse Alzheimer’s disease phenotype in mice” (The Journal of Clinical Investigation, 2023)", "key": {"5xFAD mice [1]": {"tested_on": "5xFAD mice", "test": "Delay fear conditioning in 5xFAD mice, YB-537 in drinking water", "type": "in vivo, mouse", "set-up": "Figure 8A, delay fear conditioning: unit not given here", "settings": "for freezing to conditioned context (individual mice) / freezing to conditioned cue (individual mice): in % (unit assumed); for Figure 8A, delay fear conditioning: individual animals", "procedure": "We next aimed to test the effect of QR2 inhibition in AD model mice using YB-537, taking advantage of its extremely high specificity, solubility, and lack of toxicity. First, we determined YB-537 pharmacokinetics (PK) and oral bioavailability and assessed any acute observable toxicity in mice. […] We therefore opted to chronically deliver YB-537 to AD-model mice via their drinking water, so they may freely ingest the inhibitor at 50 mg/kg, with minimal intervention or trauma, for 1 month. We chose 9-month-old 5xFAD ([27]) male and female mice in double-blind experiments, so that well-progressed symptoms and pathologies would be present, to mimic clinically relevant cases in human patients ([35]), as has been previously described in this mouse model. Other than an improvement in nest quality ([36]) over time seen in animals receiving YB-537 (starting at age 8 months and ending at age 9 months), no changes to general physical parameters or wellbeing were observed over the 1 month of YB-537 ingestion (Supplemental Figure 6, A–J). Animals received the treatment for a week, and, on week 2, behavioral experiments commenced, including Morris water maze (MWM) and novel object recognition (NOR). These were carried out in parallel, with half of the animals (including both sexes and treatments) undergoing 1 of the paradigms in week 2, and the other in week 3. […] Since learning in this paradigm was slow, and performance was poor even following 6 days of training (using 4 learning trials a day), a test day was not carried out and instead only the learning rate was measured. […] Finally, during week 4, all the mice underwent DFC.\nSince 1 month of chronic YB-537 ingestion rescued cognitive and pathological phenotypes more efficiently in female compared with male 5xFAD mice, we hypothesized that males may require a longer dosing regimen than females in order achieve a similar therapeutic effect. We therefore ran an additional experiment where we treated 5-month-old male 5xFAD mice with 50 mg/kg of YB-537 in drinking water for 4 months (starting at the age of 5 months, and ending at the age of 9 months, similar to the experiment described above), and compared cognitive performance to male 5xFAD and WT control mice of the same age not being treated with YB-537, using DFC in double-blind experiments.\nDFC was done as previously described ([7]). Briefly, mice were given 2 minutes to explore the conditioning chambers, during which baseline freezing was measured. Then, a 20 second, 4 kHz, 80 dB tone was given, coterminating with the start of a 2 second, 0.5 mA foot-shock. This was repeated twice more in 1 minute intervals. Following the third and last bout, 1 minute was given before the animals were removed from the chambers. The next day, the animals were returned to the room under the same conditions and were placed back into the chambers, and freezing to the context was measured over the course of 5 minutes. The next day, the mice were brought to unfamiliar conditioning rooms and chambers. In this unfamiliar context, the protocol from the first day was repeated, except without the foot shocks. Freezing for the cue was recorded, starting from the sounding of the first tone. All measurements were taken with a Sentec stc-tb33usb-at camera, and analysis was done with Freeze Frame software (Actimetrics). […]\nonly, and kept there for 2 min. They were then placed inside a Habitest Operant Cage, within a Habitest Isolation Cubicle (Coulbourn), on a modular shock floor made of 16 m et al grids, connected to Precision Animal Shockers (Coulbourn) with illumination inside the cage coming from a 20 W bulb. Themice were given 2 min to explore, during which baseline freezing was measured. Then, a 20 s, 4 kHz, 80 dB tone was given, co- terminating with the start of a 2 s, 0.5 mA foot-shock, which was repeated a further two times, each having 1 min interval. Following the third, and last of these bouts, 1 min was given prior to the animals being removed from the chambers. […]"}, "5xFAD mice [2]": {"tested_on": "5xFAD mice", "test": "General wellbeing / adverse effects during 1 month ingestion", "type": "in vivo, mouse", "settings": "8-to-9-month-old 5xFAD, both sexes, 50 mg/kg in drinking water, month-long", "procedure": "We next aimed to test the effect of QR2 inhibition in AD model mice using YB-537, taking advantage of its extremely high specificity, solubility, and lack of toxicity. First, we determined YB-537 pharmacokinetics (PK) and oral bioavailability and assessed any acute observable toxicity in mice. […] We therefore opted to chronically deliver YB-537 to AD-model mice via their drinking water, so they may freely ingest the inhibitor at 50 mg/kg, with minimal intervention or trauma, for 1 month. We chose 9-month-old 5xFAD ([27]) male and female mice in double-blind experiments, so that well-progressed symptoms and pathologies would be present, to mimic clinically relevant cases in human patients ([35]), as has been previously described in this mouse model. Other than an improvement in nest quality ([36]) over time seen in animals receiving YB-537 (starting at age 8 months and ending at age 9 months), no changes to general physical parameters or wellbeing were observed over the 1 month of YB-537 ingestion (Supplemental Figure 6, A–J). […] Since learning in this paradigm was slow, and performance was poor even following 6 days of training (using 4 learning trials a day), a test day was not carried out and instead only the learning rate was measured. […]"}}, "note": "“And” between values parts separate entries of the source, which are not always exact repeats. Equal values may be shown once.", "data": [{"smiles": "Cc1ccc(-c2cn3cccc(C)c3n2)cc1S(=O)(=O)N1CCNCC1", "note": "[YB-537]", "values": [{"measurement": "freezing to conditioned context (individual mice)", "setting": "5xFAD mice [1]; 5xFAD 1 month, both sexes", "result": "26.3 and 36.9 and 45.3 and 29.6 and 49.0 and 37.4 and 41.6 and 45.9 and 41.9 and 40.7 and 24.2 and 16.0 and 23.6 and 22.5 and 44.6 and 33.3"}, {"measurement": "freezing to conditioned cue (individual mice)", "setting": "5xFAD mice [1]; 5xFAD 1 month, both sexes", "result": "15.0 and 17.0 and 24.7 and 22.5 and 22.1 and 14.0 and 31.4 and 12.7 and 18.5 and 20.4 and 8.8 and 16.5 and 7.1 and 13.0 and 5.4 and 14.5"}, {"measurement": "freezing to conditioned context (individual mice)", "setting": "5xFAD mice [1]; 5xFAD 1 month, females", "result": "26.3 and 36.9 and 16.0 and 23.6 and 22.5 and 44.6 and 33.3"}, {"measurement": "freezing to conditioned cue (individual mice)", "setting": "5xFAD mice [1]; 5xFAD 1 month, females", "result": "15.0 and 17.0 and 16.5 and 7.1 and 13.0 and 5.4 and 14.5"}, {"measurement": "freezing to conditioned context (individual mice)", "setting": "5xFAD mice [1]; 5xFAD 1 month, males", "result": "45.9 and 41.9 and 40.7 and 24.2 and 45.3 and 29.6 and 49.0 and 37.4 and 41.6"}, {"measurement": "freezing to conditioned cue (individual mice)", "setting": "5xFAD mice [1]; 5xFAD 1 month, males", "result": "12.7 and 18.5 and 20.4 and 8.8 and 24.7 and 22.5 and 22.1 and 14.0 and 31.4"}, {"measurement": "Figure 8A, delay fear conditioning", "setting": "5xFAD mice [1]; Baseline", "result": "11.3 and 26.4 and 19.1 and 15.1 and 10.9 and 6.4 and 3.1 and 7.6 and 8.2"}, {"measurement": "Figure 8A, delay fear conditioning", "setting": "5xFAD mice [1]; CS/US 1", "result": "31.6 and 45.2 and 36.2 and 37.7 and 37.5 and 20.1 and 19.4 and 47.6 and 48.9"}, {"measurement": "Figure 8A, delay fear conditioning", "setting": "5xFAD mice [1]; CS/US 2", "result": "48.3 and 58.0 and 52.7 and 47.1 and 45.6 and 18.2 and 23.2 and 57.0 and 60.3"}, {"measurement": "Figure 8A, delay fear conditioning", "setting": "5xFAD mice [1]; CS/US 3", "result": "62.5 and 61.5 and 55.2 and 55.7 and 52.0 and 17.2 and 31.2 and 65.3 and 57.9"}, {"measurement": "learning during delay-fear conditioning", "setting": "5xFAD mice [1]; male 5xFAD, 50 mg/kg in drinking water 4 months", "result": "normal learning"}, {"measurement": "freezing to conditioned context (individual mice)", "setting": "5xFAD mice [1]; male 5xFAD, 4 months", "result": "24.6 and 26.8 and 50.3 and 22.2 and 32.3 and 63.4 and 63.3 and 75.1 and 38.8"}, {"measurement": "freezing to conditioned cue (individual mice)", "setting": "5xFAD mice [1]; male 5xFAD, 4 months", "result": "44.3 and 66.5 and 54.4 and 28.0 and 38.6 and 64.3 and 47.4 and 65.9 and 58.0"}, {"measurement": "learning during delay fear conditioning", "setting": "5xFAD mice [1]; male and female 5xFAD, 1 month in drinking water", "result": "no difference observed across groups"}, {"measurement": "adverse effects of chronic ingestion", "setting": "5xFAD mice [2]", "result": "no adverse effects were seen"}]}]}
